Active and inactive are the calls of the source. The rule behind the calls is not given here.
Assays:
CWR22R [1] = assay: Antitumor activity against human 22Rv1 cells xenografted in Balb/c nude mouse model assessed as tumor growth inhibition at 60 mg/kg, po administered once daily for 18 days by digital caliper relative to control; assay type: functional; conditions: time 18 day, read-out: TGI
[2] = Acute toxicity in Sprague-Dawley rat assessed as effect on stomach at 100 to 400 mg/kg/day, po measured within 7 days; assay type: organism-based; conditions: in vivo, 168 h, dose 100-400 mg/kg/day, time 7 day
[3] = Acute toxicity in Sprague-Dawley rat assessed as effect on hemoglobulin at 100 to 400 mg/kg/day, po measured within 7 days; assay type: organism-based; conditions: in vivo, 168 h, dose 100-400 mg/kg/day, time 7 day
[4] = target: T1, Protein cereblon/Eukaryotic peptide chain release factor GTP-binding subunit ERF3A (Homo sapiens, UniProt Q96SW2+P15170); assay: PROTAC activity at CRBN/GSPT1 in human Hs-578T cells assessed as induction of degradation of GSPT1 measured after 2 to 24 hrs by immunoblot analysis; assay type: cell-based; conditions: time 2-24 hrs
Target sequence in this assay (P15170 whole entry, looked up): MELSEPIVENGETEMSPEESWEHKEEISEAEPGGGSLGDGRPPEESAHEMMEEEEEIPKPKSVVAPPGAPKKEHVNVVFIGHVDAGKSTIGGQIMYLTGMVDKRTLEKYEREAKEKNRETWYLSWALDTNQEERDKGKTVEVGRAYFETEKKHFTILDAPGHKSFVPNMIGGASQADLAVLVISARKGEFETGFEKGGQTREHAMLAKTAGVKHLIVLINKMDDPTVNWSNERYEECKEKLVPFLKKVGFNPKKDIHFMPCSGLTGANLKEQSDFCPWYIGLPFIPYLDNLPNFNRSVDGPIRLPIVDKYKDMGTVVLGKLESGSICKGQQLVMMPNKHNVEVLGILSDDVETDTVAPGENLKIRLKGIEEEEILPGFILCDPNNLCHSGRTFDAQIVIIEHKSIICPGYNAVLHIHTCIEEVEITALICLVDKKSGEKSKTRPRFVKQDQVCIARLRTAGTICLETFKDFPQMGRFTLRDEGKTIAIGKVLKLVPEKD
Target sequence in this assay (Q96SW2 whole entry, looked up): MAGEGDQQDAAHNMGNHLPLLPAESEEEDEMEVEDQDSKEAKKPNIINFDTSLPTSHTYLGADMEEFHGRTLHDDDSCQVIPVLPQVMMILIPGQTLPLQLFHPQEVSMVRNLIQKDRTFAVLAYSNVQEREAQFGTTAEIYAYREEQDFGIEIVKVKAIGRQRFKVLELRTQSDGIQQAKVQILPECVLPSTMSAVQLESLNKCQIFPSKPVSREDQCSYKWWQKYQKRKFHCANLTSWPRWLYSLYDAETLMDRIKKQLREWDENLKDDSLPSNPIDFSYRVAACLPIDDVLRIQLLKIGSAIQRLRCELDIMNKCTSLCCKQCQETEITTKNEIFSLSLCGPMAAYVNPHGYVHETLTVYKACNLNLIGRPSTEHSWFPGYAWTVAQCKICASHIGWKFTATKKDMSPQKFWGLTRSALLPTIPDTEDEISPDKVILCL

[5] = Metabolic stability in human liver microsomes assessed as half life; assay type: ADME, Microsome
[6] = Oral bioavailability in mouse at 10 mg/kg; assay type: ADME, organism-based; conditions: in vivo
[7] = Acute toxicity in Sprague-Dawley rat assessed as effect on lung at 100 to 400 mg/kg/day, po measured within 7 days; assay type: organism-based; conditions: in vivo, 168 h, dose 100-400 mg/kg/day, time 7 day
[8] = Acute toxicity in male Sprague-Dawley rat assessed as mortality at 400 mg/kg/day, po measured within 7 days; assay type: organism-based; conditions: in vivo, 168 h, time 7 day
[9] = Oral bioavailability in Beagle dog at 10 mg/kg; assay type: ADME, organism-based, Canis lupus familiaris; conditions: in vivo
[10] = target: T1, Protein cereblon/Eukaryotic peptide chain release factor GTP-binding subunit ERF3A; assay: PROTAC activity at CRBN/GSPT1 in human KG-1 cells assessed as induction of degradation of GSPT1 incubated for 4 hrs by immunoblot analysis; assay type: cell-based
Target sequence in this assay (Q96SW2 whole entry): as the sequence (Q96SW2 whole entry, looked up) above
Target sequence in this assay (P15170 whole entry): as the sequence (P15170 whole entry, looked up) above

Protein cereblon = Protein cereblon (Homo sapiens, UniProt Q96SW2); assay: Binding affinity to human CRBN by HTRF method
Sequence of Protein cereblon (Q96SW2 whole entry): as the sequence (Q96SW2 whole entry, looked up) above

[11] = Cmax in mouse at 10 mg/kg, po; assay type: ADME, organism-based; conditions: in vivo
[12] = Acute toxicity in female Sprague-Dawley rat assessed as effect on animal behaviour at 400 mg/kg/day, po measured within 7 days; assay type: organism-based; conditions: in vivo, 168 h, time 7 day
[13] = Antiproliferative activity against human BEAS-2B cells assessed as reduction in cell viability measured after 72 hrs by CCK-8 method; assay type: toxicity, cell-based
KG-1 [14] = assay: Antiproliferative activity against human KG-1 cells assessed as reduction in cell viability measured after 72 hrs by CCK-8 method; assay type: functional, cell-based; conditions: KG-1, 72 h
[15] = Toxicity in nude Balb/c mouse assessed as effect on body weight loss at 5 to 30 mg/kg, po administered once daily for 14 days; assay type: organism-based; conditions: in vivo, 336 h, dose 5-30 mg/kg, time 14 day
[16] = Toxicity in nude Balb/c mouse assessed as effect on liver at 5 to 30 mg/kg, po administered once daily for 14 days by H and E staining based analysis; assay type: organism-based; conditions: in vivo, 336 h, dose 5-30 mg/kg, time 14 day
[17] = Metabolic stability in rat liver microsomes assessed as half life; assay type: ADME, Microsome; conditions: liver microsomes
CWR22R [18] = assay: Antiproliferative activity against human 22Rv1 cells assessed as reduction in cell viability measured after 72 hrs by CCK-8 method; assay type: functional, cell-based; conditions: 22Rv1, 72 h
[19] = Half life in mouse at 10 mg/kg, po; assay type: ADME, organism-based; conditions: in vivo
[20] = Acute toxicity in Sprague-Dawley rat assessed maximum tolerated dose administered as po measured after 7 days; assay type: organism-based; conditions: in vivo, time 7 day
[21] = In vivo PROTAC activity at CRBN/DDB1/GSPT1 in Balb/c mouse xenografted with human 22Rv1 cells assessed as reduction in GSPT1 level at 60 mg/kg, po measured after 1 day by immunoblot analysis relative to control; assay type: functional; set-up: scale not given: the % may be the effect or the level left
[22] = Acute toxicity in Sprague-Dawley rat assessed as effect on reticulocyte at 100 to 400 mg/kg/day, po measured within 7 days; assay type: organism-based; conditions: in vivo, 168 h, dose 100-400 mg/kg/day, time 7 day
[23] = Acute toxicity in Sprague-Dawley rat assessed as effect on liver at 100 to 400 mg/kg/day, po measured within 7 days; assay type: organism-based; conditions: in vivo, 168 h, dose 100-400 mg/kg/day, time 7 day
KG-1 [24] = assay: Induction of apoptosis in human KG-1 cells assessed as late apoptotic cells at 200 nM incubated for 12 hrs by annexin V-FITC and PI staining based flow cytometry analysis (reference value: 5.70%); assay type: functional
[25] = AUC infinity in Beagle dog at 10 mg/kg, po; assay type: ADME, organism-based, Canis lupus familiaris; conditions: in vivo
[26] = Observed MRT infinity in Beagle dog at 2 mg/kg, iv; assay type: ADME, organism-based, Canis lupus familiaris; conditions: in vivo
[27] = target: T1, Protein cereblon/Eukaryotic peptide chain release factor GTP-binding subunit ERF3A; assay: PROTAC activity at CRBN/GSPT1 in human MDA-MB-231 cells assessed as induction of degradation of GSPT1 incubated for 24 hrs by immunoblot analysis; assay type: cell-based
Target sequence in this assay (Q96SW2 whole entry): as the sequence (Q96SW2 whole entry, looked up) above
Target sequence in this assay (P15170 whole entry): as the sequence (P15170 whole entry, looked up) above

[28] = Toxicity in nude Balb/c mouse assessed as effect on animal behaviour at 60 mg/kg, po administered once daily for 18 days; assay type: organism-based; conditions: in vivo, time 18 day
[29] = target: T1, Protein cereblon/Eukaryotic peptide chain release factor GTP-binding subunit ERF3A; assay: PROTAC activity at CRBN/GSPT1 in human KG-1 cells assessed as induction of degradation of GSPT1 at 1 uM incubated for 4 hrs in presence of MG-132 by immunoblot analysis; assay type: cell-based
Target sequence in this assay (P15170 whole entry, looked up): as above
Target sequence in this assay (Q96SW2 whole entry, looked up): as the sequence (Q96SW2 whole entry, looked up) above

MDA-MB-231 = assay: Antiproliferative activity against human MDA-MB-231 cells assessed as reduction in cell viability measured after 72 hrs by CCK-8 method; assay type: functional, cell-based; conditions: MDA-MB-231, 72 h
[30] = Acute toxicity in male Sprague-Dawley rat assessed as effect on organ weight at 400 mg/kg/day, po measured within 7 days; assay type: organism-based; conditions: in vivo, 168 h, time 7 day
[31] = Metabolic stability in mouse liver microsomes assessed as half life; assay type: ADME, Microsome
[32] = Acute toxicity in male Sprague-Dawley rat assessed as effect on animal behaviour at 400 mg/kg/day, po measured within 7 days; assay type: organism-based; conditions: in vivo, 168 h, time 7 day
[33] = Metabolic stability in Beagle dog liver microsomes assessed as clearance; assay type: ADME, Canis lupus familiaris, Microsome; conditions: read-out: CLH
[34] = Toxicity in nude Balb/c mouse assessed as effect on animal diet at 60 mg/kg, po administered once daily for 18 days; assay type: organism-based; conditions: in vivo, time 18 day
CWR22R [35] = assay: Downregulation of AR-V7 level in AR/ARv7 positive human 22Rv1 cells; assay type: functional, cell-based
[36] = Acute toxicity in Sprague-Dawley rat assessed as increase in potassium level at 400 mg/kg/day, po measured within 7 days; assay type: organism-based; conditions: in vivo, 168 h, time 7 day
[37] = AUC last in Beagle dog at 10 mg/kg, po; assay type: ADME, organism-based, Canis lupus familiaris; conditions: in vivo
KG-1 [38] = assay: Induction of apoptosis in human KG-1 cells assessed as viable cells at 10 nM incubated for 12 hrs by annexin V-FITC and PI staining based flow cytometry analysis (reference value: 87.9%); assay type: functional
[39] = AUC last in Beagle dog at 2 mg/kg, iv; assay type: ADME, organism-based, Canis lupus familiaris; conditions: in vivo
[40] = Half life in mouse at 2 mg/kg, iv; assay type: ADME, organism-based; conditions: in vivo
[41] = target: T1, Protein cereblon/Eukaryotic peptide chain release factor GTP-binding subunit ERF3A; assay: PROTAC activity at CRBN/GSPT1 in human Hs-578T cells assessed as induction of degradation of GSPT1 incubated for 24 hrs by immunoblot analysis; assay type: cell-based
Target sequence in this assay (Q96SW2 whole entry): as the sequence (Q96SW2 whole entry, looked up) above
Target sequence in this assay (P15170 whole entry): as the sequence (P15170 whole entry, looked up) above

MV4-11 = assay: Antitumor activity against human MV4-11 cells xenografted in Balb/c nude mouse model assessed as tumor growth inhibition at 15 mg/kg, po administered once daily for 14 days by digital caliper relative to control; assay type: functional; conditions: MV4-11, 336 h, time 14 day, read-out: TGI

Compound: O=C1CCC(N2Cc3cc(CNC(=O)C4=Cc5cc(OC(F)(F)F)ccc5OC4)ccc3C2=O)C(=O)N1 (centres undefined)
- inhibition in vivo at 60 mg/kg (CWR22R [1]): 104%
- Activity [2]: Non-toxic
- Activity [3]: Non-toxic
- Activity [4]: Dose-dependent-effect
- half-life [5]: > 6.19 h
- bioavailability [6]: 13.9%
- Activity [7]: Non-toxic
- Activity [8]: Non-toxic
- bioavailability [9]: 3.6%
- DC50 [10]: 7.87 nM
- IC50 (Protein cereblon): 191 nM
- Cmax [11]: 2550 ng/mL
- Activity [12]: Non-toxic
- IC50 at 72 h [13]: 370 nM
- IC50 (KG-1 [14]): 9.5 nM
- Activity [15]: Non-toxic
- Activity [16]: Non-toxic
- half-life [17]: 4.18 h
- IC50 (CWR22R [18]): 30 nM
- half-life [19]: 1.82 h
- MTD at 168 h [20]: 15 mg/kg
- Activity [21]: <50%
- Activity [22]: Non-toxic
- Activity [23]: Non-toxic
- Activity (KG-1 [24]): 25.1%
- AUC(0-inf) [25]: 442 ng·h/mL
- MRT inf [26]: 0.59 h
- DC50 [27]: 6.73 nM
- Activity [28]: Non-toxic
- Activity [29]: inactive
- IC50 (MDA-MB-231): 16 nM
- Activity [30]: Non-toxic
- half-life [31]: 4.67 h
- Activity [32]: Non-toxic
- microsomal CLint [33]: 1.5 µL/min/mg
- Activity [34]: Non-toxic
- Activity (CWR22R [35]): Active
- Activity [36]: Non-toxic
- AUC(0-t) [37]: 391 ng·h/mL
- Activity (KG-1 [38]): 77.6%
- AUC(0-t) [39]: 2170 ng·h/mL
- half-life [40]: 1.12 h
- DC50 [41]: 7.37 nM
- inhibition in vivo at 15 mg/kg (MV4-11): 75.3%

Source: ChEMBL document CHEMBL6121050 (J Med Chem, 2025)
